# Assay results taken from US11135326B2, “Storage-stable aqueous solutions of chlorine dioxide and methods for preparing and using them” (CDG ENVIRONMENTAL, LLC, priority 2005, dated 2021).
# Tests used:
# [1] = Storage stability of aqueous chlorine dioxide solutions, concentration measured by amperometric titration
# Excerpt: To determine the impact of various contaminants, the inventors set up a series of experiments to test the effect of the contaminants at various concentrations.
# Pure water containing less than 1 ppm solid impurities was used to dissolve the chlorine dioxide gas and form the aqueous chlorine dioxide solutions at a concentration of 3000 ppm+/−5% chlorine dioxide as the initial starting concentration. The data in the figures is reported as % of starting concentration unless otherwise noted.
# All data on concentration of aqueous solutions were measured by amperometric titration as described in EPA Standard Methods. Serial dilution was used to adjust to the range of the analytical device.
# The accuracy of the analytical technique used is ±3%. Any variation of less than 3% is not considered significant.
# [2] = cited from earlier work
smiles,measurement,setting,value
[O][Cl+][O-] [chlorine dioxide],loss of concentration (in words),"[1]; 1500-6000 ppm of salt, even at room temperature, compared with about 100 ppm or less",much higher
same,rate of deterioration (in words),"[1]; 3000 ppm, alkali metal salts at 100 ppm, 40° C.",deteriorate at a much higher rate
same,lose % of their concentration,"[1]; 3000 ppm, less than 10 ppm alkali metal salts, about 100 days, temperatures up to 40° C.",less than 10%
same,shelf life (in words),"[1]; FIG. 2, 4500 ppm starting concentration, distilled water, amber glass bottles, 10° C. to about 40° C.",commercially acceptable shelf life
same,retains % of its starting concentration,"[1]; FIG. 2, pure chlorine dioxide at about 3000 ppmw in pure water, 40° C., more than 90 days",≥ 90%
same,stability in PET bottles (in words),"[1]; FIG. 4, distilled water, 750 mL biaxially oriented PET bottles, after an initial rapid rate of loss",almost as stable as that stored in glass
same,stability (in words),"[1]; FIG. 5, 25° C. and up to 100 ppm NaCl",equally stable within the margin of error
same,rate of deterioration (in words),"[1]; FIG. 5, 100 ppm Na+ and 40° C.",deteriorated at a markedly higher rate
same,effect of manganese ions on storage stability (in words),"[1]; FIG. 10, 3000 ppm initial, small amounts of manganese ions (e.g., 10 ppm)",greatly diminish the storage stability
same,shelf life of refrigerated solutions,"[1]; refrigerated, inferred from FIG. 2 data",about a year or more
same,minimum decomposition rate,"[2]; pH of 4.85 to 3.90, U.S. 2002/0037248",0.6 % per hour
same,strength lost,"[2]; within 24 hours, U.S. Pat. No. 7,229,647",80-90%
